Source: patent publication US7396837B2, “Antitumoral analogs of lamellarins” (Pharma Mar, S.A.U., priority 2002, dated 2008)

Key:
Assay type in all cases: cell-based
K-562 = experiment: SRB colorimetric cell growth inhibition assay, K-562; conditions: Homo sapiens, K562, K-562; for GI50: GI=growth inhibition, read-out: GI50 K-562; for CC50: cell killing (cytotoxic effect), read-out: LC50 K-562; for IC (TGI): total growth inhibition (cytostatic effect), read-out: TGI K-562
Procedure, shortened: (§1)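 Continuous drug exposure of human cancer cells; SRB protein stain read-out; triplicate wells, mean ± SD; GI, TGI, LC computed.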

A-549 = experiment: SRB colorimetric cell growth inhibition assay, A-549; conditions: Homo sapiens, A549, A-549; for GI50: GI=growth inhibition, read-out: GI50 A-549; for CC50: cell killing (cytotoxic effect), read-out: LC50 A-549; for IC (TGI): total growth inhibition (cytostatic effect), read-out: TGI A-549
Procedure, shortened: as §1

SK-MEL-28 = experiment: SRB colorimetric cell growth inhibition assay, SK-MEL-28; conditions: Homo sapiens, SK-MEL-28, MEL-28; for GI50: GI=growth inhibition, read-out: GI50 MEL-28; for CC50: LC=cell killing (cytotoxic effect), read-out: LC50 MEL-28; for IC (TGI): TGI=total growth inhibition (cytostatic effect), read-out: TGI MEL-28
Procedure, shortened: as §1

HT-29 = experiment: SRB colorimetric cell growth inhibition assay, HT-29; conditions: Homo sapiens, HT-29, HT-29; for GI50: GI=growth inhibition, read-out: GI50 HT-29; for CC50: cell killing (cytotoxic effect), read-out: LC50 HT-29; for IC (TGI): total growth inhibition (cytostatic effect), read-out: TGI HT-29
Procedure, shortened: as §1

LoVo = experiment: SRB colorimetric cell growth inhibition assay, LoVo; conditions: Homo sapiens, LoVo; for GI50: GI=growth inhibition, read-out: GI50 LOVO; for CC50: cell killing (cytotoxic effect), read-out: LC50 LOVO; for IC (TGI): total growth inhibition (cytostatic effect), read-out: TGI LOVO
Procedure, shortened: as §1

LoVo-Dox = experiment: SRB colorimetric cell growth inhibition assay, LoVo-Dox (MDR); conditions: Homo sapiens, LOVO-DOX; for GI50: GI=growth inhibition, read-out: GI50 LOVO-DOX; for CC50: cell killing (cytotoxic effect), read-out: LC50 LOVO-DOX; for IC (TGI): total growth inhibition (cytostatic effect), read-out: TGI LOVO-DOX
Procedure, shortened: as §1

DU-145 = experiment: SRB colorimetric cell growth inhibition assay, DU-145; conditions: Homo sapiens, DU-145, DU-145; for GI50: GI=growth inhibition, read-out: GI50 DU-145; for CC50: LC=cell killing (cytotoxic effect), read-out: LC50 DU-145; for IC (TGI): TGI=total growth inhibition (cytostatic effect), read-out: TGI DU-145
Procedure, shortened: as §1

LNCaP = experiment: SRB colorimetric cell growth inhibition assay, LNCaP; conditions: Homo sapiens, LNCaP, LN-caP; for GI50: GI=growth inhibition, read-out: GI50 LN-caP; for CC50: LC=cell killing (cytotoxic effect), read-out: LC50 LN-caP; for IC (TGI): TGI=total growth inhibition (cytostatic effect), read-out: TGI LN-caP
Procedure, shortened: as §1

SK-BR-3 = experiment: SRB colorimetric cell growth inhibition assay, SK-BR-3; conditions: Homo sapiens, SK-BR-3, SK-BR-3; for GI50: GI=growth inhibition, read-out: GI50 SK-BR-3; for CC50: LC=cell killing (cytotoxic effect), read-out: LC50 SK-BR-3; for IC (TGI): TGI=total growth inhibition (cytostatic effect), read-out: TGI SK-BR-3
Procedure, shortened: as §1

IGROV = experiment: SRB colorimetric cell growth inhibition assay, IGROV; conditions: Homo sapiens, IGROV; for GI50: GI=growth inhibition, read-out: GI50 IGROV; for CC50: LC=cell killing (cytotoxic effect), read-out: LC50 IGROV; for IC (TGI): TGI=total growth inhibition (cytostatic effect), read-out: TGI IGROV
Procedure, shortened: as §1

IGROV-ET = experiment: SRB colorimetric cell growth inhibition assay, IGROV-ET (ET-743 resistant); conditions: Homo sapiens, IGROV-ET; for GI50: GI=growth inhibition, read-out: GI50 IGROV-ET; for CC50: LC=cell killing (cytotoxic effect), read-out: LC50 IGROV-ET; for IC (TGI): TGI=total growth inhibition (cytostatic effect), read-out: TGI IGROV-ET
Procedure, shortened: as §1

PANC-1 = experiment: SRB colorimetric cell growth inhibition assay, PANC-1; conditions: Homo sapiens, PANC-1, PANC-1; for GI50: GI=growth inhibition, read-out: GI50 PANC-1; for CC50: cell killing (cytotoxic effect), read-out: LC50 PANC-1; for IC (TGI): total growth inhibition (cytostatic effect), read-out: TGI PANC-1
Procedure, shortened: as §1

SKOV-3 = experiment: SRB colorimetric cell growth inhibition assay, SKOV-3; conditions: Homo sapiens; for GI50: SK-OV-3, SKOV-3, GI=growth inhibition, read-out: GI50 SKOV-3; for CC50 / IC (TGI): SK-OV-3, SKOV-3; for CC50: LC=cell killing (cytotoxic effect), read-out: LC50 SKOV-3; for IC (TGI): TGI=total growth inhibition (cytostatic effect), read-out: TGI SKOV-3
Procedure, shortened: (§2)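 Growth and viability quantified by sulforhodamine B staining in 96-well microplates. Triplicate wells give mean ± SD; derived endpoints are GI, TGI (cytostatic) and LC (cytotoxic).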

[1] = SRB colorimetric cell growth inhibition assay, H-MEC-1; conditions: human, H-MEC-1 cells, H-MEC-1; LC=cell killing (cytotoxic effect); read-out: LC50 H-MEC-1
Procedure, shortened: as §2

H-MEC-1 = experiment: as above; conditions: Homo sapiens, HMEC-1, H-MEC-1; for GI50: GI=growth inhibition; for IC (TGI): TGI=total growth inhibition (cytostatic effect), read-out: TGI H-MEC-1
Procedure, shortened: as §2

COc1cc(-c2c3n(c4c(=O)oc5cc(OC(=O)[C@@H]6CCCN6)c(OC)cc5c24)CCc2c-3cc(OC)c(OC)c2OC(=O)[C@@H]2CCCN2)ccc1OC(=O)[C@@H]1CCCN1 [Compound 118]
GI50 (K-562): 1.17 µM | CC50 (K-562): 6.57 µM | IC (TGI) (K-562): 2.77 µM | GI50 (A-549): 1.8 µM | CC50 (A-549): 6.99 µM | IC (TGI) (A-549): 3.55 µM | GI50 (SK-MEL-28): 1.65 µM | CC50 (SK-MEL-28): 5.49 µM | IC (TGI) (SK-MEL-28): 3 µM | GI50 (HT-29): 1.92 µM | CC50 (HT-29): 6.59 µM | IC (TGI) (HT-29): 3.56 µM | GI50 (LoVo): 1.35 µM | CC50 (LoVo): 5.43 µM | IC (TGI) (LoVo): 2.7 µM | GI50 (LoVo-Dox): 0.45 µM | CC50 (LoVo-Dox): 3.86 µM | IC (TGI) (LoVo-Dox): 1.3 µM | GI50 (DU-145): 1.6 µM | CC50 (DU-145): 5.64 µM | IC (TGI) (DU-145): 3 µM | GI50 (LNCaP): 0.987 µM | CC50 (LNCaP): 4.76 µM | IC (TGI) (LNCaP): 2.16 µM | GI50 (SK-BR-3): 0.639 µM | CC50 (SK-BR-3): 6.25 µM | IC (TGI) (SK-BR-3): 2.04 µM | GI50 (IGROV): 0.97 µM | CC50 (IGROV): 5.47 µM | IC (TGI) (IGROV): 2.3 µM | GI50 (IGROV-ET): 0.876 µM | CC50 (IGROV-ET): 6.17 µM | IC (TGI) (IGROV-ET): 2.33 µM | GI50 (PANC-1): 1.08 µM | CC50 (PANC-1): 5.35 µM | IC (TGI) (PANC-1): 2.4 µM | GI50 (SKOV-3): 2.02 µM | CC50 (SKOV-3): 8.22 µM | IC (TGI) (SKOV-3): 4.08 µM | CC50 [1]: 6.45 µM | GI50 (H-MEC-1): 1.45 µM | IC (TGI) (H-MEC-1): 3.06 µM

COc1cc2ccn3c(c(-c4ccc(OS(=O)(=O)C(F)(F)F)c(OC)c4)c4c5cc(OC)c(OS(=O)(=O)C(F)(F)F)cc5oc(=O)c43)c2cc1OC [Compound 126]
GI50 (K-562): 2.15 µM | CC50 (K-562): 8.69 µM | IC (TGI) (K-562): 4.32 µM | GI50 (A-549): 2.98 µM | CC50 (A-549): 2.25 µM | IC (TGI) (A-549): 5.74 µM | GI50 (SK-MEL-28): 2.93 µM | CC50 (SK-MEL-28): 9.48 µM | IC (TGI) (SK-MEL-28): 5.27 µM | GI50 (HT-29): 3 µM | CC50 (HT-29): 12.9 µM | IC (TGI) (HT-29): 9.22 µM | GI50 (LoVo): 2.56 µM | CC50 (LoVo): 12.6 µM | IC (TGI) (LoVo): 5.68 µM | GI50 (LoVo-Dox): 12.9 µM | CC50 (LoVo-Dox): 12.9 µM | IC (TGI) (LoVo-Dox): 12.9 µM | GI50 (DU-145): 2.53 µM | CC50 (DU-145): 12.9 µM | IC (TGI) (DU-145): 6.49 µM | GI50 (LNCaP): 1.25 µM | CC50 (LNCaP): 6.04 µM | IC (TGI) (LNCaP): 2.76 µM | GI50 (SK-BR-3): 2.11 µM | CC50 (SK-BR-3): 1.29 µM | IC (TGI) (SK-BR-3): 5.36 µM | GI50 (IGROV): 2.26 µM | CC50 (IGROV): 12.6 µM | IC (TGI) (IGROV): 5.32 µM | GI50 (IGROV-ET): 3.88 µM | CC50 (IGROV-ET): 12.9 µM | IC (TGI) (IGROV-ET): 7.87 µM | GI50 (PANC-1): 2.19 µM | CC50 (PANC-1): 12.9 µM | IC (TGI) (PANC-1): 6.57 µM | GI50 (SKOV-3): 3.48 µM | CC50 (SKOV-3): 12.9 µM | IC (TGI) (SKOV-3): 6.98 µM | CC50 [1]: 6.46 µM | GI50 (H-MEC-1): 0.746 µM | IC (TGI) (H-MEC-1): 2.25 µM
